Literature values, collected in US6770263B1, “Compositions and methods for the treatment of aches and pains” (NatureWell, Incorporated, priority 2001, dated 2004).

Conditions: following the administration of 500 mg aspirin

SMILES: CC(=O)Oc1ccccc1C(=O)O [aspirin, acetylsalicylic acid]
- plasma level: 130 µM
